Experimental data as given in patent publication US12492173B2, “Herbicidal substituted N-tetrazolyl aryl carboxamides” (Bayer Aktiengesellschaft, priority 2019, dated 2025).

Key:
Type in all cases: in vivo
Polygonum convolvulus [1] = assay: Pre-emergence herbicidal action, POLCO; conditions: for herbicidal action POLCO: dosage 320 g/ha
Source text: (§1) 1. Pre-Emergence Herbicidal Action Against Harmful Plants Seeds of monocotyledonous and dicotyledonous weed plants and crop plants are laid out in sandy loam soil in wood-fiber pots and covered with soil. The compounds of the invention, formulated in the form of wettable powders (WP) or as emulsion concentrates (EC), are then applied to the surface of the covering soil in the form of an aqueous suspension or emulsion at a water application rate equating to 600 to 800 l/ha, with addition of 0.2% wetting agent. After the treatment, the pots are placed in a greenhouse and kept under good growth conditions for the trial plants. The damage to the test plants is scored visually after a test period of 3 weeks by comparison with untreated controls (herbicidal activity in percent (%): 100% activity=the plants have died, 0% activity=like control plants). […] The tables below illustrate, in an exemplary manner, the […] herbicidal action of the compounds according to the invention, the herbicidal activity being stated in percent. [table] In the experiments that follow, herbicidal action of numerous inventive compounds and the known compounds that are structurally closest from D1 (WO 2012/028579 A1) and D2 (WO 2018/202535 A1) were compared under the above-specified conditions by the pre-emergence and post-emergence method. The example numbers given in the tables relate to the compounds disclosed in the respective documents. In addition to the compounds disclosed in D1 and D2, the following compounds V-1 to V-14 that are encompassed by D1 or D2 but are not compounds specified therein were used in the comparative experiments: • V-1: 2-(methylsulfanyl)-3-(methylsulfinyl)-N-(1-methyl-1H-tetrazol-5-yl)-4-(trifluoromethyl)benzamide • V-2: 2-(methylsulfanyl)-3-(methylsulfonyl)-N-(1-methyl-1H-tetrazol-5-yl)-4-(trifluoromethyl)benzamide • V-3: 2,3-bis(ethylsulfanyl)-N-(1-methyl-1H-tetrazol-5-yl)-4-(trifluoromethyl)benzamide • V-4: 2-chloro-3-(ethylsulfanyl)-N-(1-methyl-1H-tetrazol-5-yl)-4-(trifluoromethyl)benzamide • V-5: 2-chloro-4-iodo-3-(methylsulfanyl)-N-(1-methyl-1H-tetrazol-5-yl)benzamide • V-6: 2-chloro-4-iodo-3-(methylsulfinyl)-N-(1-methyl-1H-tetrazol-5-yl)benzamide • V-7: 2-chloro-4-iodo-3-(methylsulfonyl)-N-(1-methyl-1H-tetrazol-5-yl)benzamide • V-8: 2-bromo-3-(methylsulfanyl)-N-(1-methyl-1H-tetrazol-5-yl)-4-(trifluoromethyl)benzamide • V-9: 2-bromo-3-(methylsulfinyl)-N-(1-methyl-1H-tetrazol-5-yl)-4-(trifluoromethyl)benzamide • V-10: 2-bromo-3-(methylsulfonyl)-N-(1-methyl-1H-tetrazol-5-yl)-4-(trifluoromethyl)benzamide • V-11: 2-bromo-3-(ethylsulfanyl)-N-(1-methyl-1H-tetrazol-5-yl)-4-(trifluoromethyl)benzamide • V-12: 2-bromo-3-(ethylsulfinyl)-N-(1-methyl-1H-tetrazol-5-yl)-4-(trifluoromethyl)benzamide • V-13: 2-bromo-3-(ethylsulfonyl)-N-(1-methyl-1-1H-tetrazol-5-yl)-4-(trifluoromethyl)benzamide • V-14: 2-cyclopropyl-3-(ethylsulfanyl)-N-(1-methyl-1H-tetrazol-5-yl)-4-(trifluoromethyl)benzamide Herbicidal Pre-Emergence Action: […]

Veronica persica [2] = assay: Pre-emergence herbicidal action, VERPE; set-up: key to Herbicidal action against VERPE: % activity: 100 = plants have died, 0 = like control plants; conditions: for herbicidal action VERPE: dosage 320 g/ha
Source text: as §1

Matricaria inodora [3] = assay: Pre-emergence herbicidal action, MATIN; conditions: dosage 320 g/ha
Source text: as §1

Amaranthus retroflexus [4] = assay: Post-emergence herbicidal action, AMARE; set-up: key: % herbicidal action vs untreated; 100 = plants died, 0 = like control; conditions: post-emergence, dosage 80 g/ha
Protocol: (§2) [table] 2. Post-Emergence Herbicidal Action Against Harmful Plants Seeds of monocotyledonous and dicotyledonous weed and crop plants are laid out in sandy loam soil in wood-fiber pots, covered with soil and cultivated in a greenhouse under good growth conditions. 2 to 3 weeks after sowing, the test plants are treated at the one-leaf stage. The compounds of the invention, formulated in the form of wettable powders (WP) or as emulsion concentrates (EC), are then sprayed onto the green parts of the plants in the form of an aqueous suspension or emulsion at a water application rate equating to 600 to 800 l/ha, with addition of 0.2% wetting agent. After the test plants have been left to stand in the greenhouse under optimal growth conditions for about 3 weeks, the action of the preparations is assessed visually in comparison to untreated controls (herbicidal action in percent (%): 100% activity=the plants have died, 0% activity=like control plants). […] The tables below illustrate, in an exemplary manner, the post-emergence herbicidal action of the compounds according to the invention, the herbicidal activity being stated in percent. In the experiments that follow, herbicidal action of numerous inventive compounds and the known compounds that are structurally closest from D1 (WO 2012/028579 A1) and D2 (WO 2018/202535 A1) were compared under the above-specified conditions by the pre-emergence and post-emergence method. The example numbers given in the tables relate to the compounds disclosed in the respective documents. In addition to the compounds disclosed in D1 and D2, the following compounds V-1 to V-14 that are encompassed by D1 or D2 but are not compounds specified therein were used in the comparative experiments: • V-1: 2-(methylsulfanyl)-3-(methylsulfinyl)-N-(1-methyl-1H-tetrazol-5-yl)-4-(trifluoromethyl)benzamide • V-2: 2-(methylsulfanyl)-3-(methylsulfonyl)-N-(1-methyl-1H-tetrazol-5-yl)-4-(trifluoromethyl)benzamide • V-3: 2,3-bis(ethylsulfanyl)-N-(1-methyl-1H-tetrazol-5-yl)-4-(trifluoromethyl)benzamide • V-4: 2-chloro-3-(ethylsulfanyl)-N-(1-methyl-1H-tetrazol-5-yl)-4-(trifluoromethyl)benzamide • V-5: 2-chloro-4-iodo-3-(methylsulfanyl)-N-(1-methyl-1H-tetrazol-5-yl)benzamide • V-6: 2-chloro-4-iodo-3-(methylsulfinyl)-N-(1-methyl-1H-tetrazol-5-yl)benzamide • V-7: 2-chloro-4-iodo-3-(methylsulfonyl)-N-(1-methyl-1H-tetrazol-5-yl)benzamide • V-8: 2-bromo-3-(methylsulfanyl)-N-(1-methyl-1H-tetrazol-5-yl)-4-(trifluoromethyl)benzamide • V-9: 2-bromo-3-(methylsulfinyl)-N-(1-methyl-1H-tetrazol-5-yl)-4-(trifluoromethyl)benzamide • V-10: 2-bromo-3-(methylsulfonyl)-N-(1-methyl-1H-tetrazol-5-yl)-4-(trifluoromethyl)benzamide • V-11: 2-bromo-3-(ethylsulfanyl)-N-(1-methyl-1H-tetrazol-5-yl)-4-(trifluoromethyl)benzamide • V-12: 2-bromo-3-(ethylsulfinyl)-N-(1-methyl-1H-tetrazol-5-yl)-4-(trifluoromethyl)benzamide • V-13: 2-bromo-3-(ethylsulfonyl)-N-(1-methyl-1-1H-tetrazol-5-yl)-4-(trifluoromethyl)benzamide • V-14: 2-cyclopropyl-3-(ethylsulfanyl)-N-(1-methyl-1H-tetrazol-5-yl)-4-(trifluoromethyl)benzamide Herbicidal Pre-Emergence Action: […]

Echinochloa crus-galli [5] = assay: Pre-emergence herbicidal action, ECHCG; conditions: for herbicidal action ECHCG: dosage 320 g/ha
Source text: as §1

Veronica persica [6] = assay: Post-emergence herbicidal action, VERPE; set-up: key: % herbicidal action vs untreated; 100 = plants died, 0 = like control; conditions: post-emergence, dosage 80 g/ha
Protocol: as §2

Abutilon theophrasti [7] = assay: Post-emergence herbicidal action, ABUTH; set-up: key: % herbicidal action vs untreated; 100 = plants died, 0 = like control; conditions: post-emergence, dosage 80 g/ha
Protocol: as §2

Polygonum convolvulus [8] = assay: Post-emergence herbicidal action, POLCO; conditions: post-emergence, dosage 80 g/ha
Protocol: as §2

Viola tricolor [9] = assay: Post-emergence herbicidal action, VIOTR; set-up: key: % herbicidal action vs untreated; 100 = plants died, 0 = like control; conditions: post-emergence, dosage 80 g/ha
Protocol: as §2

Echinochloa crus-galli [10] = assay: Post-emergence herbicidal action, ECHCG; set-up: key: % herbicidal action vs untreated; 100 = plants died, 0 = like control; conditions: post-emergence, dosage 80 g/ha
Protocol: as §2

Pharbitis purpurea = assay: Post-emergence herbicidal action, PHBPU; conditions: post-emergence, dosage 80 g/ha
Protocol: as §2

Amaranthus retroflexus [11] = assay: Pre-emergence herbicidal action, AMARE; set-up: key to Herbicidal action against AMARE: % activity: 100 = plants have died, 0 = like control plants; conditions: for herbicidal action AMARE: dosage 320 g/ha
Source text: as §1

Stellaria media [12] = assay: Post-emergence herbicidal action, STEME; set-up: key: % herbicidal action vs untreated; 100 = plants died, 0 = like control; conditions: post-emergence, dosage 80 g/ha
Protocol: as §2

Viola tricolor [13] = assay: Pre-emergence herbicidal action, VIOTR; conditions: dosage 320 g/ha
Source text: as §1

Stellaria media [14] = assay: Pre-emergence herbicidal action, STEME; set-up: key to Herbicidal action against STEME: % activity: 100 = plants have died, 0 = like control plants; conditions: for herbicidal action STEME: dosage 320 g/ha
Source text: as §1

Setaria viridis [15] = assay: Pre-emergence herbicidal action, SETVI; set-up: key to Herbicidal action against SETVI: % activity: 100 = plants have died, 0 = like control plants; conditions: for herbicidal action SETVI: dosage 320 g/ha
Source text: as §1

Setaria viridis [16] = assay: Post-emergence herbicidal action, SETVI; set-up: key: % herbicidal action vs untreated; 100 = plants died, 0 = like control; conditions: post-emergence, dosage 80 g/ha
Protocol: as §2

Matricaria inodora [17] = assay: Post-emergence herbicidal action, MATIN; set-up: key: % herbicidal action vs untreated; 100 = plants died, 0 = like control; conditions: post-emergence, dosage 80 g/ha
Protocol: as §2

Avena fatua = assay: Post-emergence herbicidal action, AVEFA; set-up: key: % herbicidal action vs untreated; 100 = plants died, 0 = like control; conditions: post-emergence, dosage 80 g/ha
Protocol: as §2

Abutilon theophrasti [18] = assay: Pre-emergence herbicidal action, ABUTH; conditions: dosage 320 g/ha
Source text: as §1

[19] = comparative experiment, 20 g of a.i./ha

Row | Compound | herbicidal action POLCO (Polygonum convolvulus [1]) [%] | herbicidal action VERPE (Veronica persica [2]) [%] | herbicidal action MATIN (Matricaria inodora [3]) [%] | Herbicidal action against AMARE (Amaranthus retroflexus [4]) | herbicidal action ECHCG (Echinochloa crus-galli [5]) [%] | Herbicidal action against VERPE (Veronica persica [6]) | Herbicidal action against ABUTH (Abutilon theophrasti [7]) | Herbicidal action against POLCO (Polygonum convolvulus [8]) | Herbicidal action against VIOTR (Viola tricolor [9]) | Herbicidal action against ECHCG (Echinochloa crus-galli [10]) | Herbicidal action against PHBPU (Pharbitis purpurea) | herbicidal action AMARE (Amaranthus retroflexus [11]) [%] | Herbicidal action against STEME (Stellaria media [12]) | herbicidal action VIOTR (Viola tricolor [13]) [%] | herbicidal action STEME (Stellaria media [14]) [%] | herbicidal action SETVI (Setaria viridis [15]) [%] | Herbicidal action against SETVI (Setaria viridis [16]) | Herbicidal action against MATIN (Matricaria inodora [17]) | herbicidal action ABUTH (Abutilon theophrasti [18]) [%] | other results
1 | CCS(=O)(=O)Cc1c(C(F)F)ccc(C(=O)Nc2nnnn2C)c1S(=O)(=O)CC [Example 1-229] | 100 | 100 | 90 | 80 | 100 | 90 | 100 | 80 | 90 | 90 | 80 | 100 | 100 | 100 | 100 |  |  |  |  | 
2 | CCn1nnnc1NC(=O)c1ccc(C)c(CS(C)(=O)=O)c1Cl [Example 2-289] | 80 | 90 | 100 | 100 | 100 | 90 |  | 80 | 80 | 100 | 90 | 100 | 100 |  | 90 | 100 | 100 | 100 |  | 
3 | CCCn1nnnc1NC(=O)c1ccc(S(C)(=O)=O)c(C[S+](C)[O-])c1C (stereo not drawn) [Example 3-38] | 80 | 100 | 100 | 100 |  | 100 | 90 |  | 100 | 90 |  | 90 | 100 | 100 | 90 |  | 80 | 80 |  | 
4 | CCCn1nnnc1NC(=O)c1ccc(C(F)F)c(C[S+](C)[O-])c1C (stereo not drawn) [Example 3-108] |  | 90 | 100 | 80 | 90 | 100 |  |  | 100 | 80 | 100 | 100 | 100 | 100 |  | 90 |  | 90 | 100 | Herbicidal action against AVEFA (Avena fatua): 80
5 | CCCn1nnnc1NC(=O)c1ccc(C)c(CS(C)(=O)=O)c1Cl [Example 3-289] | 80 | 90 | 100 | 90 | 100 | 90 | 80 |  |  | 90 |  | 100 | 90 |  |  |  |  | 100 | 80 | 
6 | Cn1nnnc1NC(=O)c1ccc(I)c(S(C)(=O)=O)c1Cl [Example V-7, 2-chloro-4-iodo-3-(methylsulfonyl)-N-(1-methyl-1H-tetrazol-5-yl)benzamide, reference compound] |  |  |  |  |  |  |  |  |  |  |  |  |  |  |  |  |  |  |  | Herbicidal action against POLCO (Polygonum convolvulus [1]; [19]): 0; Herbicidal action against VERPE (Veronica persica [2]; [19]): 40; pest or weed control at 20 g/ha (Echinochloa crus-galli [5]; Echinochloa crus-galli, 504 h, comparative experiment, 20 g of a.i./ha, read-out: Herbicidal action against ECHCG): 10%; Herbicidal action against AMARE (Amaranthus retroflexus [11]; [19]): 30; Herbicidal action against SETVI (Setaria viridis [15]; [19]): 0; Herbicidal action against STEME (Stellaria media [14]; [19]): 0
